{
  "source": "patent US9072768B2",
  "about": "“Composition and method for increasing effectiveness of radiation or chemotherapy” (Kibow Biotech, Inc., priority 2013, dated 2015)",
  "origin": "cited, not measured here",
  "test_system": "colorectal cancer",
  "details": "adjuvant treatment, stage III patients",
  "data": [
    {"compound": "O=c1[nH]cc(F)c(=O)[nH]1", "note": "[5-Fluorouracil]", "values": [
      {"measurement": "improvement of absolute 5-year survival", "value": "approximately 10%"}
    ]}
  ]
}
